Measured values: patent publication US4948813A, “Benzylketone phospholipase A2 inhibitors” (E. I. Du Pont de Nemours and Company, priority 1989, dated 1990)
Structures can show the parent of a compound that is named as a salt.

What follows are compounds tested on inflammation induced by tetradecanoyl phorbol acetate (TPA) (assay: TPA Inflammation Inhibition Test). Conditions: mouse ear edema, topical, 100 mg/ear, four hours.
Format: in vivo, mice
Experimental: The TPA model mimics many of the inflammatory change which occur in human skin diseases such as psoriasis, since elevated levels of inflammatory arachidonic acid metabolites are found and an influx of polymorphonuclear leukocytes is observed. The test procedure used to evaluate the compounds of Formula (I) is as follows: the test compound (100 mg/ear) is applied to both ears of mice in an appropriate vehicle, such as acetone, and then the inflammatory stimulus (TPA) is applied to the right ear. Four hours later, the edema is measured by removing standard size discs from the ears using a biopsy punch. A control group of animals receives TPA in vehicle applied to the right ear, and vehicle alone to the left ear.

| Compound | % Inhibition of Control Swelling |
| --- | --- |
| COc1ccc(CNCCC(=O)c2ccc(F)cc2)c2ccccc12 [Example 7, 1-(4-Fluorophenyl)-3-[(4-methoxy-1-naphthaIenyl)-methylamino]-1-propanone Hydrochloride] | 21% |
| CC(C)c1ccc2c(c1)CCC1C(C)(CNCCC(=O)c3ccccc3)CCCC21C (stereo not shown) [Example 21, 1-Phenyl-3-([4a-dimethyl-7-(1-methylethyl)-1,2,3,4,4a,9,10,10aoctahydro-1-phenanthren-1-yl]-methylamino)-1-propanone 4-Methylbenzenesulfonate] | 31% |
| CCCCCCC(C)OCCCC(=O)c1ccc(F)cc1 (stereo not drawn) [Example 37, 1-(4-Fluorophenyl)-4-(d-1-methylheptyloxy)-1-butanone] | 20% |
| CC(C)c1ccc2c(c1)CCC1C(C)(CNCCC(=O)c3ccc(F)cc3)CCCC21C.Cl (stereo not shown) [Example 52, 3-([1,4a-Dimethyl-1,2,3,4,4a,9,10,10a-octahydro-7-(1-methylethyl)-1-phenanthrenyl]methylamino)-1-(4-fluorophenyl)-1-propanone Hydrochloride] | 40% |
